pEC50: −log10 of the molar value. Read-outs that look alike come from different tables or passages of the source. Some results are limits rather than exact numbers.

Usually pEC50 stands for −log10 of the EC50, conventionally taken in molar units.

For this experiment, the target named is hTREM2 (Homo sapiens, UniProt Q9NZC2). As to the kind of experiment: Phospho-Syk AlphaScreen/AlphaLISA assay in TREM2 and DAP12 overexpressing HEK293 cells (Example A1). The class given is cell-based. Also on record: expressed in transfected cells. In outline: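 Single-cell-cloned HEK293 stably overexpressing TREM2 and DAP12, plated 20,000 cells/well for 20 h, then exposed to compounds (1% DMSO) 45 min at room temperature. Lysates probed for phospho-Syk by AlphaLISA sandwich (anti-pSyk, biotinylated anti-Syk); signal normalized to percent of control (100 nM anti-TREM2 antibody vs isotype) and fitted by 4-parameter logistic.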
Sequence of hTREM2 (Q9NZC2 19-230): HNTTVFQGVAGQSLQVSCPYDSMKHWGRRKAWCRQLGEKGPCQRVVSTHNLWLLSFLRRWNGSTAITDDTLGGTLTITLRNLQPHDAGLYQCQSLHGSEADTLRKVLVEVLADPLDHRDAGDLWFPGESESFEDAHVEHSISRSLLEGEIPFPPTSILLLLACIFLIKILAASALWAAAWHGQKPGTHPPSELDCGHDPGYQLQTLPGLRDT
Sequence of hTREM2 (O43914 22-113 partner): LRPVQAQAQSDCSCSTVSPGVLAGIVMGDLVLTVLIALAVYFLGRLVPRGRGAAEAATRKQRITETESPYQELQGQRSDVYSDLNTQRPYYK

[1] abbreviates: HEK293 cells, read-out: hTREM2 EC50.

Regarding `Cc1nc2cc(N3CCC(c4nccn4C)C3)nc(-c3ccc(Cl)cc3F)c2c(=O)n1C` (centres unmarked) [Example 122, 5-(4-chloro-2-fluorophenyl)-2,3-dimethyl-7-(3-(1-methyl-1H-imidazol-2-yl)-1-pyrrolidinyl)pyrido[4,3-d]pyrimidin-4(3H)-one], the Emax result (HEK293 cells) is “+ (Emax>45 and ≤100)”. Under setting [1], the pEC50 is 4.00 to 5.52.
For `Cc1nc2cc(N3CCO[C@@H](c4cnn(C(C)C)c4)C3)nc(-c3ccc(Cl)cc3F)c2c(=O)n1C` [Example 123, 5-(4-chloro-2-fluorophenyl)-2,3-dimethyl-7-((2S)-2-(1-(2-propanyl)-1H-pyrazol-4-yl)-4-morpholinyl)pyrido[4,3-d]pyrimidin-4(3H)-one], the Emax entry (HEK293 cells) was “++++ (Emax>300)”. Moreover, the pEC50 under setting [1] was greater than 7.30.
Take `Cc1nc2cc(N3CCO[C@@H](c4cnn(C5CCC5)c4)C3)nc(-c3ccc(Cl)cc3F)c2c(=O)n1C` [Example 124, 5-(4-chloro-2-fluorophenyl)-7-((2S)-2-(1-cyclobutyl-1H-pyrazol-4-yl)-4-morpholinyl)-2,3-dimethylpyrido[4,3-d]pyrimidin-4(3H)-one]: the Emax result (HEK293 cells) is given as “++++ (Emax>300)”. Also, under setting [1], the pEC50 was greater than 7.30.
Taken in the same sequence, the figures for `Cc1nc2cc(N3CCO[C@@H](c4cnn(C5COC5)c4)C3)nc(-c3ccc(Cl)cc3F)c2c(=O)n1C` [Example 125, 5-(4-chloro-2-fluorophenyl)-2,3-dimethyl-7-((2S)-2-(1-(3-oxetanyl)-1H-pyrazol-4-yl)-4-morpholinyl)pyrido[4,3-d]pyrimidin-4(3H)-one] were “++++ (Emax>300)” and greater than 7.30.
With `Cc1nc2cc(N3CCO[C@@H](c4cnn(CC(F)(F)F)c4)C3)nc(-c3ccc(Cl)cc3F)c2c(=O)n1C` [Example 126, 5-(4-chloro-2-fluorophenyl)-2,3-dimethyl-7-((2S)-2-(1-(2,2,2-trifluoroethyl)-1H-pyrazol-4-yl)-4-morpholinyl)pyrido[4,3-d]pyrimidin-4(3H)-one], the Emax result (HEK293 cells) is “+++ (Emax>200 and ≤300)”. Also, under setting [1], the pEC50 was greater than 7.30.
`COCCn1cc([C@H]2CN(c3cc4nc(C)n(C)c(=O)c4c(-c4ccc(Cl)cc4F)n3)CCO2)cn1` [Example 127, 5-(4-chloro-2-fluorophenyl)-7-((2S)-2-(1-(2-methoxyethyl)-1H-pyrazol-4-yl)-4-morpholinyl)-2,3-dimethylpyrido[4,3-d]pyrimidin-4(3H)-one]: for the setting “HEK293 cells”, the Emax entry is “++++ (Emax>300)”. Besides, the pEC50 under setting [1] was 6.30 to 7.30.
For `Cc1nc2cc(N3CCO[C@@H](c4cnn(CCF)c4)C3)nc(-c3ccc(Cl)cc3F)c2c(=O)n1C` [Example 128, 5-(4-chloro-2-fluorophenyl)-7-((2S)-2-(1-(2-fluoroethyl)-1H-pyrazol-4-yl)-4-morpholinyl)-2,3-dimethylpyrido[4,3-d]pyrimidin-4(3H)-one], the Emax result (HEK293 cells) is “+++ (Emax>200 and ≤300)”. The pEC50 under setting [1] is greater than 7.30.
For `Cc1nc2cc(N3CCO[C@@H](c4cnn(C(C)F)c4)C3)nc(-c3ccc(Cl)cc3F)c2c(=O)n1C` (stereo partly drawn) [Example 129, 5-(4-chloro-2-fluorophenyl)-7-((2S)-2-(1-(1-fluoroethyl)-1H-pyrazol-4-yl)-4-morpholinyl)-2,3-dimethylpyrido[4,3-d]pyrimidin-4(3H)-one], the Emax entry (HEK293 cells) is “+++ (Emax>200 and ≤300)”. For the same compound, under setting [1], the pEC50 is greater than 7.30.
On to `Cc1nc2cc(N3CCO[C@@H](c4cnn(C(F)CO)c4)C3)nc(-c3ccc(Cl)cc3F)c2c(=O)n1C` (stereo partly drawn) [Example 130, 5-(4-chloro-2-fluorophenyl)-7-((2S)-2-(1-(1-fluoro-2-hydroxyethyl)-1H-pyrazol-4-yl)-4-morpholinyl)-2,3-dimethylpyrido[4,3-d]pyrimidin-4(3H)-one], for which the pEC50 under setting [1] was 6.30 to 7.30.
Consider `Cc1nc2cc(N3CCO[C@@H](c4cnn(C5CC(F)(F)C5)c4)C3)nc(-c3ccc(Cl)cc3F)c2c(=O)n1C` [Example 131, 5-(4-chloro-2-fluorophenyl)-7-((2S)-2-(1-(3,3-difluorocyclobutyl)-1H-pyrazol-4-yl)-4-morpholinyl)-2,3-dimethylpyrido[4,3-d]pyrimidin-4(3H)-one], for which the Emax entry (HEK293 cells) is “+++ (Emax>200 and ≤300)”. Moreover, the pEC50 under setting [1] was greater than 7.30.
With `Cc1nc2cc(N3CCO[C@@H](c4cnn(CCN(C)C)c4)C3)nc(-c3ccc(Cl)cc3F)c2c(=O)n1C` [Example 132, 5-(4-chloro-2-fluorophenyl)-7-((2S)-2-(1-(2-(dimethylamino)ethyl)-1H-pyrazol-4-yl)-4-morpholinyl)-2,3-dimethylpyrido[4,3-d]pyrimidin-4(3H)-one], the Emax result (HEK293 cells) is given as “++++ (Emax>300)”. Besides, the pEC50 under setting [1] is 6.30 to 7.30.
Regarding `Cc1nc2cc(N3CCO[C@@H](c4cnn(C(CF)CF)c4)C3)nc(-c3ccc(Cl)cc3F)c2c(=O)n1C` [Example 133, 5-(4-chloro-2-fluorophenyl)-7-((2S)-2-(1-(1,3-difluoro-2-propanyl)-1H-pyrazol-4-yl)-4-morpholinyl)-2,3-dimethylpyrido[4,3-d]pyrimidin-4(3H)-one], the Emax result (HEK293 cells) was “+++ (Emax>200 and ≤300)”. The pEC50 under setting [1] is greater than 7.30.
Take `Cc1nc2cc(N3CCO[C@@H](c4cnn(C5CN(C(=O)OC(C)(C)C)C5)c4)C3)nc(-c3ccc(Cl)cc3F)c2c(=O)n1C` [Example 134, 2-methyl-2-propanyl 3-(4-((2S)-4-(5-(4-chloro-2-fluorophenyl)-2,3-dimethyl-4-oxo-3,4-dihydropyrido[4,3-d]pyrimidin-7-yl)-2-morpholinyl)-1H-pyrazol-1-yl)-1-azetidinecarboxylate]: where the note is “HEK293 cells”, the Emax entry is listed as “++++ (Emax>300)”. In addition, the pEC50 under setting [1] was 6.30 to 7.30.
Regarding `Cc1nc2cc(N3CCO[C@@H](c4cnn(C(F)CF)c4)C3)nc(-c3ccc(Cl)cc3F)c2c(=O)n1C` (stereo partly drawn) [Example 135, 5-(4-chloro-2-fluorophenyl)-7-((2S)-2-(1-(1,2-difluoroethyl)-1H-pyrazol-4-yl)-4-morpholinyl)-2,3-dimethylpyrido[4,3-d]pyrimidin-4(3H)-one], under “hTREM2 EC50, HEK293 cells”, the pEC50 was 6.30 to 7.30.
`Cc1nc2cc(N3CCO[C@@H](c4cnn(C5CC5)c4)C3)nc(-c3ccc(Cl)cc3F)c2c(=O)n1C` [Example 136, 5-(4-chloro-2-fluorophenyl)-7-((2S)-2-(1-cyclopropyl-1H-pyrazol-4-yl)-4-morpholinyl)-2,3-dimethylpyrido[4,3-d]pyrimidin-4(3H)-one]: the Emax entry (HEK293 cells) is “++++ (Emax>300)”. For the same compound, under setting [1], the pEC50 was greater than 7.30.
The matching figures for `C=Cn1cc([C@H]2CN(c3cc4nc(C)n(C)c(=O)c4c(-c4ccc(Cl)cc4F)n3)CCO2)cn1` [Example 137, 5-(4-chloro-2-fluorophenyl)-7-((2S)-2-(1-ethenyl-1H-pyrazol-4-yl)-4-morpholinyl)-2,3-dimethylpyrido[4,3-d]pyrimidin-4(3H)-one]: “++++ (Emax>300)” and greater than 7.30.
For the compound `Cc1nc2cc(N3CCO[C@@H](c4cnn(C5CN(C)C5)c4)C3)nc(-c3ccc(Cl)cc3F)c2c(=O)n1C` [Example 138, 5-(4-chloro-2-fluorophenyl)-2,3-dimethyl-7-((2S)-2-(1-(1-methyl-3-azetidinyl)-1H-pyrazol-4-yl)-4-morpholinyl)pyrido[4,3-d]pyrimidin-4(3H)-one], the Emax entry (HEK293 cells) is “+++ (Emax>200 and ≤300)”. In addition, the pEC50 under setting [1] was 6.30 to 7.30.
As to `Cc1nc2cc(N3CCO[C@@H](c4cnn(C(F)(F)F)c4)C3)nc(-c3ccc(Cl)cc3F)c2c(=O)n1C` [Example 141, 5-(4-chloro-2-fluorophenyl)-2,3-dimethyl-7-((2S)-2-(1-(trifluoromethyl)-1H-pyrazol-4-yl)-4-morpholinyl)pyrido[4,3-d]pyrimidin-4(3H)-one], under “HEK293 cells”, the Emax entry is on record as “++++ (Emax>300)”. Moreover, the pEC50 under setting [1] is 6.30 to 7.30.
As to `Cn1cc([C@H]2CN(c3cc4nc(C5CC5)n(C)c(=O)c4c(-c4ccc(Cl)cc4F)n3)CCO2)cn1` [Example 142, 5-(4-chloro-2-fluorophenyl)-2-cyclopropyl-3-methyl-7-((2S)-2-(1-methyl-1H-pyrazol-4-yl)-4-morpholinyl)pyrido[4,3-d]pyrimidin-4(3H)-one], the Emax entry (HEK293 cells) is “++++ (Emax>300)”. The pEC50 under setting [1] was 6.30 to 7.30.
Taken in the same sequence, the figures for `Cn1cc([C@H]2CN(c3cc4nc(C(F)(F)F)n(C)c(=O)c4c(-c4ccc(Cl)cc4F)n3)CCO2)cn1` [Example 143, 5-(4-chloro-2-fluorophenyl)-3-methyl-7-((2S)-2-(1-methyl-1H-pyrazol-4-yl)-4-morpholinyl)-2-(trifluoromethyl)pyrido[4,3-d]pyrimidin-4(3H)-one] were “++++ (Emax>300)” and 6.30 to 7.30.
Taken in the same sequence, the figures for `CCn1c(C(F)(F)F)nc2cc(N3CCO[C@@H](c4cnn(C)c4)C3)nc(-c3ccc(Cl)cc3F)c2c1=O` [Example 144, 5-(4-chloro-2-fluorophenyl)-3-ethyl-7-((2S)-2-(1-methyl-1H-pyrazol-4-yl)-4-morpholinyl)-2-(trifluoromethyl)pyrido[4,3-d]pyrimidin-4(3H)-one] were “++++ (Emax>300)” and 6.30 to 7.30.
In the case of `Cc1nc2cc(N3CCO[C@@H](c4cnn(C)c4)C3)nc(-c3ccc(Cl)cc3F)c2c(=O)[nH]1` [Example 145, 5-(4-chloro-2-fluorophenyl)-2-methyl-7-((2S)-2-(1-methyl-1H-pyrazol-4-yl)-4-morpholinyl)pyrido[4,3-d]pyrimidin-4(3H)-one], under “HEK293 cells”, the Emax entry is “++ (Emax>100 and ≤200)”. Also, the pEC50 under setting [1] was 5.52 to 6.30.
For `CCn1c(C)nc2cc(N3CCO[C@@H](c4cnn(C)c4)C3)nc(-c3ccc(Cl)cc3F)c2c1=O` [Example 146, 5-(4-chloro-2-fluorophenyl)-3-ethyl-2-methyl-7-((2S)-2-(1-methyl-1H-pyrazol-4-yl)-4-morpholinyl)pyrido[4,3-d]pyrimidin-4(3H)-one], the Emax result (HEK293 cells) is “++++ (Emax>300)”. Moreover, under setting [1], the pEC50 is greater than 7.30.

The values are drawn from patent US20250388574A1, “HETEROCYCLIC COMPOUNDS AS TRIGGERING RECEPTOR EXPRESSED ON MYELOID CELLS 2 AGONISTS AND METHODS OF USE” (AMGEN INC., priority 2020, published 2025).
